Earlier results on one compound are cited in publication PMC3325405 (Amino Acids, 2011).

In the data set the target is Klebsiella aerogenes enzyme (urease). The note with it: read-out: K i, Klebsiella aerogenes urease; ref Todd 1989.

As to `CC(=O)NO` [AHA, acetohydroxamic acid], the Ki was 2600 nM.
